From patent US20260053931A1, “MDM2 TARGETING PROTACS” (THE WISTAR INSTITUTE OF ANATOMY AND BIOLOGY, priority 2023, published 2026) come the findings set out here.

Data set [1] is described as follows: In vivo toxicity, C57Bl/6 mice. More on the design: species or system mouse. As to the method:
FIGS. 24A-24E show no overt toxicities from the MDM2-PROTAC YX-02-030 observed in vivo. A-B. A. After C57Bl/6 immunocompetent mice received 15 consecutive intraperitoneal (IP) injections of MDM2-PROTAC (50 mg/kg) or vehicle control treatments, complete blood counts were determined. B. H&E sections of formalin-fixed paraffin-embedded tissues evaluated (B, BM-bone marrow). C-E, Nude mice with subcutaneous tumors of MDA-MB-231 and MDA-MB-436 TNBC cells were administered (IP) MDM2-PROTAC YX-02-030, RG7112D, or vehicle control (50 mg/kg) for 14 consecutive days. C. Mouse weight was measured daily throughout the course of treatment. D. Complete blood counts were determined following 13 consecutive treatments. E. Sections of formalin-fixed paraffin-embedded tissues from mice at time of sacrifice were H&E stained and evaluated. Representative images are shown and scale bars are 200 m (spleen) and 300 μm (bone marrow and intestine). Mean±SD (A, C, D).
Prior to testing YX-02-030 tumors in vivo, mouse liver microsome and pharmacokinetic (PK) studies were performed to determine its stability in vivo. […] Due to its stability in vivo, the effectiveness of YX-02-030 was then evaluated at killing TNBC tumors in mice. […] The toxicity of YX-2-228 was analyzed as compared to both the vehicle and YX-2-30. […]

For data set [2], the system named is TNBC patient mammospheres. The data set can be described thus: Patient TNBC 3D mammosphere cultures. The format is cell-based, human. The protocol:
FIGS. 27A-27E show TP53 mutant TNBC patient-derived explants undergo apoptosis following treatment with the MDM2-PROTAC YX-02-030. A. TP53 sequenced in five fresh TNBC patient samples and used in explant and 3D mammosphere cultures. B-C. TNBC patient-derived explants were treated with the compounds indicated and Western blotting (B) and immunohistochemistry (IHC) of FFPE sections for cleaved Caspase-3 (C, n=3 paired patient samples) were performed. Representative images of H&E and cleaved Caspase-3 (CC3) IHC shown, including normal breast epithelium treated with MDM2-PROTAC YX-02-030; scale bar 300 m. D-E. Mammosphere cultures were established from TNBC patient samples, treated with the indicated compounds, and live-cell detection of Caspase-3/7 activity (D, quadruplicate) and mammosphere survival/ATP production (E, quadruplicate) were measured.
For three of the patient TNBC tumor samples there was enough tissue to also establish 3D mammosphere cultures, and for one of these patients, normal breast epithelial tissue was also received that generated loose cell clusters.

The subject of data set [3] is MDA-MB-231 and MDA-MB-436 cells. The data set is described as follows: Colony formation assay. More on the design: unit of the concentration uncertain. The format is cell-based, human. The settings on record: 12 days. The protocol:
FIGS. 21A-21E show the apoptosis induction of p53-inactivated TNBC cells in 2D and 3D cultures by the MDM2-PROTAC YX-02-030. A-B. Colony formation assays (A. Triplicate, 12 days) and mammosphere formation (B. Triplicate 72 hrs) of MDA-MB-231 and MDA-MB-436 cells in the presence of the indicated compounds or DMSO control (−); representative pictures shown. C-E. Formed mammospheres of MDA-MB-231 and MDA-MB-436 cells were treated with the compounds indicated or DMSO control (−), and area (C. n=10 mammospheres, relative to pre-treatment area, 72 hr), real-time imaging (IncuCyte) and quantification of Caspase-3/7 activity (D. n=4-5 wells/compound), and survival/ATP assays (E. Quadruplicate, 72 hr) were performed; representative images shown; scale bar 300 m. Mean±SEM (A-C and E). For A, *P<0.0001 and **P<0.0001, comparing 1 M and 2 M PROTAC, respectively, to control compounds and DMSO vehicle control. For B, *P<0.0046, **P<0.0001, and ***P<0.0001, comparing 0.5 M, 1 M, and 2 M PROTAC, respectively, to control compounds and DMSO vehicle control. For C, *P<0.0001 and **P<0.0001, comparing 2 M and 4 M/6 M PROTAC, respectively, to control compounds and DMSO vehicle control. […]
The ability of the PROTAC-mediated degradation of MDM2 to alter the clonogenic potential of p53-inactivated TNBC cells was evaluated by performing colony formation assays with MDA-MB-231 and MDA-MB-436 cells. […]

Another data set deals with MDA-MB-231 cells. The data set is described as follows: Proteomics analysis of degradation selectivity. The format is cell-based, human. The settings on record: 5 μM, 8 hours. The protocol: A proteomics analysis was performed to assess the selectivity of degradation by YX-02-030. MDA-MB-231 cells were treated for 8 hours with 5 μM of YX-02-030 or DMSO in triplicate and processed to provide 25 μg of protein loaded on a 10% acrylamide gel. The entire protein-containing gel regions were excised, digested with trypsin and analyzed by liquid chromatography tandem mass spectrometry (LC-MS/MS) using a 240-min gradient as described (Chae et al., 2016). Peptide sequences were identified using MaxQuant 1.6.3.3 (Cox & Mann, 2008). MS/MS spectra were searched against a UniProt human protein database. […] Under these experimental conditions Mdm2 was not able to be detected either in the treated or untreated samples.

[4] abbreviates: mammospheres from three patient tumors.

For `CCOc1cc(C(C)(C)C)ccc1C1=N[C@](C)(c2ccc(Cl)cc2)[C@](C)(c2ccc(Cl)cc2)N1C(=O)N1CCN(CC(=O)NCCOCCOCCOCC(=O)N[C@H](C(=O)N2C[C@H](O)C[C@H]2C(=O)NCc2ccc(-c3scnc3C)cc2)C(C)(C)C)CC1` (racemic) [YX-02-030], the overt toxicity result in data set [1] (C57Bl/6 mice and immune-deficient mice of the xenograft experiments, 50 mg/kg IP) was “no signs of overt toxicity”. Besides, the tolerability result in data set [1] (C57Bl/6 mice, 30 mg/kg IP, 2× daily) is recorded as “well tolerated”. In data set [2] (setting [4]), the Caspase-3/7 activity result is given as “significantly increased Caspase-3/7 activity” and the mammosphere survival entry is “reduced survival”. Moreover, the “effect on normal breast epithelial clusters” value in data set [2] (normal breast epithelial tissue of one patient) is listed as “remained largely unaffected”. In data set [3] (1 (unit uncertain)), the colony numbers result was “significant reduction in colony numbers”. Also, the colonies formed in data set [3] (2 (unit uncertain)) is < 2 colonies. Besides, in the data set with MDA-MB-231 cells, the observable proteins affected is < 10% and the “proteins significantly changed out of 4237” value turned out to be 31 proteins.
